{"source": "patent US11279734B2", "about": "“Solution-phase affinity selection of inhibitors from combinatorial peptide libraries” (Massachusetts Institute of Technology, priority 2017, dated 2022)", "key": {"SUMO-25-109 MDM2 [1]": {"target": "T1, SUMO-25-109 MDM2 (Homo sapiens, UniProt Q00987)", "assay": "BLI in solution competition assay", "assay_type": "binding", "conditions": "for binding to MDM2 (in words): acetylated peptides or mini-proteins, BLI", "experimental": "Calibration Curve: Streptavidin (SA) sensors were soaked in competition buffer (PBS supplemented with 0.05% Tween-20, and L-arginine pH 7.5) for 10 minutes at 30° C. […] The thus obtained biotinylated 63a (0.5 μM in competition buffer) was loaded on the SA sensor for 10 minutes at 30° C. and 1000 rpm. […] A calibration curve corresponding to binding response at equilibrium (in nm)=f(free [MDM2] in nM) was generated using GraphPad Prism 6 software using non-linear regression analysis (see FIG. 5).\nMeanwhile, SA sensors were soaked in competition buffer for 10 minutes at 30° C. […] Based on the binding (nm) values, the concentration of “free” MDM2 was interpolated for each sample using the calibration curve. […] The following equation was used to generate fitted curves."}, "SJSA-1 cells [2]": {"test_system": "SJSA-1 cells", "assay": "Western blot analysis of p53 activation (MDM2, p21)", "assay_type": "cell-based", "conditions": "10 μM, 12 hours", "experimental": "SJSA-1 and K-562 cells were seeded in 6 well plates at a cell density of 350*10^3 cells/well in RPMI-1640 media supplemented with 10% serum and 1% Pen-Strep and incubated overnight at 37° C. and 5% CO2. The next day cells were treated with peptides and controls at 10 μM for 12 hours. Then cells were harvested and their pellets washed (2×) with PBS and lysed in 100 μL of RIPA buffer supplemented with Roche protease inhibitor cocktail on ice for 30 minutes. The lysates were clarified by brief centrifugation at 4° C. and total protein concentration was determined using the Bio-Rad DC protein assay. Aliquots of the cell lysates were run on 12% Tris-Glycine polyacrylamide gels (Invitrogen). After transfer using Trans-Blot Turbo Transfer system (Biorad), the membrane was blocked at room temperature for 2 hours with LI-COR blocking buffer. The membrane was cut in three and each part was incubated respectively with anti-MDM2 (mouse, SMP14: sc-965, Santa Cruz Biotechnology), anti-p21 (mouse, F-5: sc-6246, Santa Cruz Biotechnology) and anti-GAPDH (rabbit, GAPDH (D16H11) XP®, Cell Signaling Technology) antibodies in TBST overnight at 4° C. The membranes were washed and incubated with the appropriate secondary antibodies in TBST for 1 h at room temperature, washed again, then imaged with the LI-COR Odyssey infrared imaging system (see FIGS. 103-105)."}, "SJSA-1 cells [3]": {"test_system": "SJSA-1 cells", "assay": "Cell viability assay (MTS)", "assay_type": "cell-based", "conditions": "72 hours", "experimental": "(§1) SJSA-1, K-562 and MCF-7 cells were plated in 96-well plates in RPMI-1640 containing 10% FBS and 1% Pen-Strep and the next day were treated with the indicated concentrations of peptide or vehicle control. Peptide stocks were diluted into RPMI-1640 containing 10% FBS and 1% Pen-Strep to achieve 2× working individual stock solutions that were thoroughly mixed then diluted into the treatment wells. Cell viability was assayed after 72 hours by addition of CellTiter 96® AQueous One Solution Cell Proliferation reagent (MTS). All assays were performed in triplicate, and data was normalized to vehicle treated control and analyzed using Prism software (GraphPad Software)."}, "MDM2 [4]": {"target": "T2, MDM2 (Homo sapiens, UniProt Q00987)", "assay": "HPSEC affinity selection under increasing stringency (EIC peak area)", "assay_type": "binding", "conditions": "usual stringency vs 100 μM of 6 and MDM2 lowered to […]", "experimental": "SEC conditions: unless stated otherwise, high performance size exclusion column BIO-SEC-3, 7.8×150 mm, 3 μm particle size and 100 Å pore size was used. 100 μL of binding mixture containing peptides or peptide libraries and protein target was isocratically eluted in buffered mobile phase (25 mM Tris, 50 mM NaCl, pH 7.5, with or without L-arginine supplementation) at 1 mL/min flow rate for 15 minutes (typical backpressure ˜80-90 bars for a brand new column). Generally, mobile phase is also used as the binding buffer for affinity selection experiments, and systematically before each experiment a blank injection is performed consisting in a protein only injection. During affinity selection experiments the breakthrough fraction (protein fraction) was monitored by UV and collected. The latter contained the protein-binder complexes which were dissociated using 0.2% formic acid before characterization using LC-MS or LC-MS/MS analysis."}, "SUMO-25-109 MDM2 [5]": {"target": "T1, SUMO-25-109 MDM2", "assay_type": "binding", "conditions": "biotinylated peptides, BLI"}, "K-562 cells": {"test_system": "K-562 cells", "assay": "Cell viability assay (MTS)", "assay_type": "cell-based", "conditions": "K-562 p53-null cells, 72 hours", "experimental": "as §1"}, "MCF-7 cells": {"test_system": "MCF-7 cells", "assay": "Cell viability assay (MTS)", "assay_type": "cell-based", "conditions": "MCF-7 cells (MDM2 and MDMX overexpressing), 72 hours", "experimental": "as §1"}, "MDM2 [6]": {"target": "T2, MDM2", "assay": "Kd MDM2 (nM)", "text": "Table printed on a drawing sheet, Figure 2B\nHead of the field: Kd MDM2 (nM)\nThe patent's description of the figure: FIGS. 2A-2F: Rapid combinatorial mapping of pDI (6) key binding residues and affinity selection of potent non-canonical inhibitors of ^25-109MDM2 and C-CA proteins. FIG. 2A) Combinatorial mapping of pDI (6) binding hotspots, library design. Represented are 6's randomized residues using L-configured (circles) natural amino acids. FIG. 2B) Affinity selected sequences from Library 1 and 2 at different stringencies (sequences 1 to 9) were validated after resynthesis and biotinylation or acetylation (peptides 1a to 6a and 7b to 9b) using bio-layer interferometry (BLI). In bold italic are represented randomized residues, and those that were varied compared to sequence 6. FIG. 2C) Expanding linear inhibitor hotspots to non-canonical amino acids. Library 3 was designed around 6 while Library 4 was designed around CAI (37) inhibitor. Depicted are randomized residues using non-canonical amino acids (abbreviations for each monomer are indicated in bold). FIG. 2D) Affinity selection from Library 3 at higher stringency using 6 as a soluble competitive inhibitor. […]\nFirst copying reader's note: Randomized residues are printed in italic (bold or grey); this styling is not kept in the grid.\nWhere the first naming reader finds the target: head: Kd MDM2 (nM)"}}, "note": "Entries after “also recorded” stand apart in the source; their conditions may differ. Like-named read-outs stand apart in the source and are kept apart here. Where no end group is shown, it is not given here. [ ]: non-standard residue; d: D form. Cha = N[C@@H](CC1CCCCC1)C(=O)O", "data": [{"substance": "LT(F2f)(R8)EFWAQ(Cba)(S5)SAA [peptide 11b-M]", "values": [{"measurement": "binding to MDM2 (in words)", "setting": "SUMO-25-109 MDM2 [1]; in solution competition", "value": "low nanomolar affinity"}, {"measurement": "upregulation of MDM2 and p21", "setting": "SJSA-1 cells [2]", "value": "upregulated p21 and MDM2"}, {"measurement": "cell killing / viability", "setting": "SJSA-1 cells [3]", "value": "cell-killing properties"}]}, {"substance": "LT(F2f)EHY(Hexa)AQ(Cba)TSK [peptide 10]", "values": [{"measurement": "EIC peak area variation from condition (A) to (D)", "setting": "MDM2 [4]", "value": 4.5, "unit": "fold"}]}, {"substance": "LT(F2f)KEY(Hexa)AQ(Cba)(K)SAA [peptide 10b-S4]", "values": [{"measurement": "binding to MDM2 (in words)", "setting": "SUMO-25-109 MDM2 [1]; in solution competition", "value": "weakened or abrogated binding"}]}, {"substance": "LT(F2f)KEYWAE(Cba)KSAA [peptide 11b-S4]", "values": [{"measurement": "binding to MDM2 (in words)", "setting": "SUMO-25-109 MDM2 [1]; in solution competition", "value": "weakened or abrogated binding"}]}, {"substance": "KAWYAN(CF3f)EKLLR [peptide 53]", "values": [{"measurement": "affinity for MDM2 lower than 54b", "setting": "SUMO-25-109 MDM2 [1]; label free approach, relative to 54b", "value": "about 20 fold"}]}, {"substance": "Bio-(PEG)4- Leu Thr F2f Glu His Tyr Trp Ala Gln Cba Thr Ser Lys -NH2 [(SEQ ID NO: 12) | 11a]", "values": [{"measurement": "Kd", "setting": "MDMX", "value": 33, "unit": "nM"}]}, {"substance": "LTFEHYWAQFTSK [peptide 5a]", "values": [{"measurement": "binding to MDM2 (in words)", "setting": "SUMO-25-109 MDM2 [5]", "value": "nanomolar binder"}]}, {"substance": "Bio-(PEG)4- Leu Thr F2f Glu His Tyr Hexa Ala Gln Cba Thr Ser Lys -NH2 [(SEQ ID NO: 11) | 10a]", "values": [{"measurement": "Kd", "setting": "MDMX", "value": 26, "unit": "nM"}]}, {"substance": "LT(F2f)(R8)EY(Hexa)AQ(Cba)(S5)SAA [peptide 10b-M]", "values": [{"measurement": "binding to MDM2 (in words)", "setting": "SUMO-25-109 MDM2 [1]; in solution competition", "value": "low nanomolar affinity"}, {"measurement": "upregulation of MDM2 and p21", "setting": "SJSA-1 cells [2]", "value": "upregulated MDM2 and P21 markers"}, {"measurement": "cell viability", "setting": "K-562 cells", "value": "did not significantly lower K-562 viability"}, {"measurement": "cell viability", "setting": "MCF-7 cells", "value": "lowered viability for MCF-7 cells"}, {"measurement": "cell killing / viability", "setting": "SJSA-1 cells [3]", "value": "cell-killing properties; also recorded: killed SJSA-1 cells"}]}, {"substance": "LT(F2f)EHYWAQ(Cba)TSK [peptide 11b]", "values": [{"measurement": "binding to MDM2 (in words)", "setting": "SUMO-25-109 MDM2 [1]; in solution competition", "value": "low nanomolar affinity"}]}, {"substance": "LT(F2f)(R8)EY(Napa)AE(Cba)KSAA [peptide 27b-M]", "values": [{"measurement": "binding to MDM2 (in words)", "setting": "SUMO-25-109 MDM2 [1]; in solution competition", "value": "low nanomolar affinity"}, {"measurement": "upregulation of MDM2 and p21", "setting": "SJSA-1 cells [2]", "value": "upregulated p21 and MDM2"}, {"measurement": "cell viability", "setting": "K-562 cells", "value": "did not significantly lower K-562 viability"}, {"measurement": "cell viability", "setting": "MCF-7 cells", "value": "lowered viability for MCF-7 cells"}, {"measurement": "cell killing / viability", "setting": "SJSA-1 cells [3]", "value": "cell-killing properties"}]}, {"substance": "LT(F2f)EHYWAQ(Cba)TSK [peptide 11]", "values": [{"measurement": "EIC peak area variation from condition (A) to (D)", "setting": "MDM2 [4]", "value": 30, "unit": "fold"}]}, {"substance": "KAWYAN[Cha]EKLLR [peptide 45]", "values": [{"measurement": "Kd", "setting": "SUMO-25-109 MDM2 [1]; in solution competition, acetylated peptide or mini-protein, fitted titration curve", "value": 6.1, "unit": "nM"}]}, {"substance": "Bio-(PEG)4- Leu Thr Phe Glu His Tyr Trp Ala Gln Leu Thr Ser Lys -NH2 [(SEQ ID NO: 8) | 6a]", "values": [{"measurement": "Kd", "setting": "MDMX", "value": 83, "unit": "nM"}]}, {"substance": "LT(F2f)EHY(Hexa)AQ(Cba)TSK [peptide 10b]", "values": [{"measurement": "binding to MDM2 (in words)", "setting": "SUMO-25-109 MDM2 [1]; in solution competition", "value": "low nanomolar affinity to MDM2"}]}, {"substance": "LT(F2f)(Dap)EYWAQ(Cba)(Dap)SAA [peptide 11b-S1]", "values": [{"measurement": "binding to MDM2 (in words)", "setting": "SUMO-25-109 MDM2 [1]; in solution competition", "value": "low nanomolar affinity"}, {"measurement": "upregulation of MDM2 and p21", "setting": "SJSA-1 cells [2]", "value": "upregulated MDM2 and P21 markers; also recorded: upregulated p53 gene products p21 and MDM2"}, {"measurement": "cell viability", "setting": "K-562 cells", "value": "did not significantly lower K-562 viability"}, {"measurement": "cell viability", "setting": "MCF-7 cells", "value": "lowered viability for MCF-7 cells"}, {"measurement": "cell killing / viability", "setting": "SJSA-1 cells [3]", "value": "cell-killing properties; also recorded: killed SJSA-1 cells"}]}, {"substance": "LTFCys(ar)HYWAQFCys(ar)SK [peptide 61a]", "values": [{"measurement": "binding to MDM2 (in words)", "setting": "SUMO-25-109 MDM2 [5]", "value": "substantially weaker binding compared to 60a"}]}, {"substance": "LT(F2f)EHY(Hexa)AQ(Cba)TSK [peptide 10a]", "values": [{"measurement": "binding to MDM2 (in words)", "setting": "SUMO-25-109 MDM2 [5]", "value": "high affinity binder"}]}, {"substance": "Ac-LTYEHYWAQLTSK-NH2 [SEQ ID NO: 67 | 8b]", "values": [{"measurement": "Kd", "setting": "MDM2 [6]", "value": 2700, "unit": "nM"}]}]}
